# In DBAASP:
# Tests used:
# Assay in all cases: ≥ marks a high value that may be exact or a test limit, other limits are often not marked, values filed in µg/mL are converted to µM
# [1] = test system: Escherichia coli ATCC 25922
# Staphylococcus aureus = test system: Staphylococcus aureus
# Pseudomonas aeruginosa = test system: Pseudomonas aeruginosa
# Escherichia coli = test system: Escherichia coli
# [2] = test system: Staphylococcus aureus ATCC 25923
# [3] = test system: Pseudomonas aeruginosa ATCC 27853
MIC [1],MIC (Pseudomonas aeruginosa),MIC (Escherichia coli),Compound,other results
25.7 µM,,,CC[C@H](C)[C@H](NC(=O)[C@H](CCCN=C(N)N)NC(=O)[C@H](Cc1c[nH]c2ccccc12)NC(=O)[C@@H](N)Cc1ccccc1)C(=O)N[C@@H](CCCN=C(N)N)C(=O)N[C@@H](CCCCN)C(=O)N[C@@H](Cc1c[nH]c2ccccc12)C(=O)N[C@@H](CCCN=C(N)N)C(N)=O [FWRIRKWR],
,75 µM,37.5 µM,CC[C@H](C)[C@H](NC(=O)CN)C(=O)NCC(=O)N[C@@H](CCCCN)C(=O)N[C@@H](Cc1ccccc1)C(=O)N[C@H](C(=O)N[C@@H](Cc1cnc[nH]1)C(=O)N[C@@H](CO)C(=O)N[C@@H](C)C(=O)N[C@@H](CCCCN)C(=O)N[C@@H](CCCN=C(N)N)C(=O)N[C@@H](Cc1ccccc1)C(=O)NCC(=O)N[C@@H](CCCN=C(N)N)C(=O)N[C@@H](C)C(=O)N[C@@H](Cc1c[nH]c2ccccc12)C(=O)N[C@H](C(=O)NCC(=O)N[C@@H](CCC(=O)O)C(=O)N[C@H](C(=O)N[C@@H](CCSC)C(=O)N[C@@H](CC(N)=O)C(=O)N[C@@H](CO)C(N)=O)[C@@H](C)CC)C(C)C)[C@@H](C)CC [GIGKFIHSAKRFGRAWVGEIMNS],MIC (Staphylococcus aureus): > 75 µM
2.23 µM,,,CC[C@H](C)[C@H](NC(=O)CN)C(=O)NCC(=O)N[C@@H](CCCCN)C(=O)N[C@@H](Cc1ccccc1)C(=O)N[C@@H](CC(C)C)C(=O)N[C@@H](Cc1cnc[nH]1)C(=O)N[C@@H](CO)C(=O)N[C@@H](C)C(=O)N[C@@H](CCCCN)C(=O)N[C@@H](CCCCN)C(=O)N[C@@H](Cc1ccccc1)C(=O)NCC(=O)N[C@@H](CCCCN)C(=O)N[C@@H](C)C(=O)N[C@@H](Cc1ccccc1)C(=O)N[C@H](C(=O)NCC(=O)N[C@@H](CCC(=O)O)C(=O)N[C@H](C(=O)N[C@@H](CCSC)C(=O)N[C@@H](CC(N)=O)C(=O)N[C@@H](CO)C(=O)NCC(=O)NCC(=O)N[C@@H](CO)C(N)=O)[C@@H](C)CC)C(C)C [GIGKFLHSAKKFGKAFVGEIMNSGGS],
3 µM,,,CC[C@H](C)[C@H](NC(=O)CN)C(=O)N[C@@H](CC(C)C)C(=O)N[C@@H](CO)C(=O)N[C@H](C(=O)N[C@H](C(=O)N[C@@H](CCCCN)C(=O)N[C@@H](CC(=O)O)C(=O)N[C@@H](Cc1ccccc1)C(=O)N[C@@H](C)C(=O)N[C@H](C(=O)N[C@@H](CCCCN)C(=O)N[C@@H](C)C(=O)NCC(=O)N[C@@H](CCCCN)C(=O)NCC(=O)N[C@@H](C)C(=O)N[C@@H](C)C(=O)N[C@@H](CCCCN)C(=O)NCC(=O)N[C@@H](CC(C)C)C(=O)N[C@@H](CC(C)C)C(=O)N[C@@H](CCC(=O)O)C(=O)N[C@@H](CCSC)C(=O)N[C@@H](C)C(=O)N[C@@H](CO)C(=O)N[C@H]1CSSC[C@@H](C(=O)O)NC(=O)[C@H](CCC(N)=O)NC(=O)CNC(=O)[C@H](CO)NC(=O)[C@H](CC(C)C)NC(=O)[C@H](CCCCN)NC1=O)[C@@H](C)CC)[C@@H](C)CC)[C@@H](C)O [GILSTIKDFAIKAGKGAAKGLLEMASCKLSGQC],
25 µM,,,CC[C@H](C)[C@H](NC(=O)CN)C(=O)N[C@@H](CCSC)C(=O)N[C@@H](CC(=O)O)C(=O)N[C@H](C(=O)N[C@H](C(=O)N[C@@H](CCCCN)C(=O)N[C@@H](CC(N)=O)C(=O)N[C@H](C(=O)N[C@@H](C)C(=O)N[C@@H](CCCCN)C(=O)N[C@@H](CC(N)=O)C(=O)N[C@@H](CC(C)C)C(=O)N[C@@H](C)C(=O)NCC(=O)N[C@@H](CCC(N)=O)C(=O)N[C@@H](CC(C)C)C(=O)N[C@@H](CC(C)C)C(=O)N[C@@H](CC(=O)O)C(=O)N[C@@H](CCCCN)C(=O)N[C@@H](CC(C)C)C(=O)N[C@@H](CCCCN)C(=O)N[C@H]1CSSC[C@@H](C(=O)O)NC(=O)[C@H](C)NC(=O)[C@H]([C@@H](C)O)NC(=O)[C@H]([C@@H](C)CC)NC(=O)[C@H](CCCCN)NC1=O)C(C)C)C(C)C)[C@@H](C)O [GIMDTVKNVAKNLAGQLLDKLKCKITAC],
> 100 µM,,,CC[C@H](C)[C@H](NC(=O)[C@H](CCSC)NC(=O)[C@@H](NC(=O)[C@H](CCC(=O)O)NC(=O)CNC(=O)[C@H](CC(C)C)NC(=O)[C@H](Cc1ccccc1)NC(=O)[C@H](C)NC(=O)[C@H](CCCCN)NC(=O)CNC(=O)[C@H](Cc1ccccc1)NC(=O)[C@H](CCCCN)NC(=O)CNC(=O)[C@H](C)NC(=O)[C@H](CO)NC(=O)[C@H](Cc1cnc[nH]1)NC(=O)[C@H](CC(C)C)NC(=O)[C@H](Cc1ccccc1)NC(=O)[C@H](CCCCN)NC(=O)CN)C(C)C)C(=O)NCC(=O)O [GKFLHSAGKFGKAFLGEVMIG],MIC [2]: > 100 µM
10 µM,,,CC[C@H](C)[C@H](NC(=O)[C@H](CCCN=C(N)N)NC(=O)[C@H](CCCCN)NC(=O)[C@H](CC(C)C)NC(=O)[C@H](CC(C)C)NC(=O)CN)C(=O)N[C@@H](C)C(=O)N[C@H](C(=O)N[C@@H](CC(C)C)C(=O)N[C@@H](CC(C)C)C(N)=O)[C@@H](C)O [GLLKRIATLL],MIC [2]: 10 µM
,> 133 µM,> 133 µM,CC[C@H](C)[C@H](NC(=O)[C@H](C)NC(=O)CNC(=O)[C@@H](NC(=O)[C@H](CCCCN)NC(=O)[C@H](CCCCN)NC(=O)[C@@H](NC(=O)[C@H](C)NC(=O)CNC(=O)[C@H](Cc1c[nH]c2ccccc12)NC(=O)[C@H](CCCCN)NC(=O)[C@H](CCCCN)NC(=O)[C@@H](NC(=O)[C@H](C)NC(=O)CNC(=O)[C@@H](NC(=O)[C@@H](N)CCCCN)[C@@H](C)CC)[C@@H](C)CC)[C@@H](C)CC)[C@@H](C)CC)C(=O)N[C@@H](CCCCN)C(N)=O [KIGAIKKWGAIKKIGAIK],MIC (Staphylococcus aureus): > 133 µM
,33.3 µM,16.6 µM,CC[C@H](C)[C@H](NC(=O)[C@H](C)NC(=O)[C@H](CCCCN)NC(=O)CNC(=O)[C@@H](NC(=O)[C@H](CCCCN)NC(=O)[C@@H](NC(=O)[C@H](C)NC(=O)[C@H](CCCCN)NC(=O)CNC(=O)[C@H](Cc1c[nH]c2ccccc12)NC(=O)[C@H](CCCCN)NC(=O)[C@@H](NC(=O)[C@H](C)NC(=O)[C@H](CCCCN)NC(=O)CNC(=O)[C@@H](NC(=O)[C@@H](N)CCCCN)[C@@H](C)CC)[C@@H](C)CC)[C@@H](C)CC)[C@@H](C)CC)C(N)=O [KIGKAIKWGKAIKIGKAI],MIC (Staphylococcus aureus): > 133 µM
6 µM,,,CC(C)C[C@H](NC(=O)[C@H](CCCCN)NC(=O)[C@H](CCCCN)NC(=O)[C@H](C)NC(=O)[C@H](CC(C)C)NC(=O)[C@H](CCCCN)NC(=O)[C@H](C)NC(=O)[C@H](CC(C)C)NC(=O)[C@H](CCCCN)NC(=O)[C@H](CCCCN)NC(=O)[C@H](C)NC(=O)[C@H](CC(C)C)NC(=O)[C@@H](N)CCCCN)C(=O)N[C@@H](C)C(N)=O [KLAKKLAKLAKKLA],MIC [2]: 6 µM; MIC [3]: 3 µM
,,91.8 µM,CC(C)C[C@H](NC(=O)[C@H](CC(C)C)NC(=O)[C@@H](N)CCCCN)C(=O)N[C@@H](CCCN=C(N)N)C(=O)N[C@@H](CCCCN)C(=O)N[C@@H](CCCCN)C(=O)N[C@@H](Cc1ccccc1)C(=O)N[C@@H](Cc1c[nH]c2ccccc12)C(=O)N[C@@H](Cc1c[nH]c2ccccc12)C(=O)NCC(N)=O [KLLRKKFWWG],MIC [2]: 184 µM
,> 20.3 µM,,CC[C@H](C)[C@H](NC(=O)[C@H](Cc1ccccc1)NC(=O)[C@H](CO)NC(=O)[C@H](CCCCN)NC(=O)[C@H](Cc1c[nH]c2ccccc12)NC(=O)[C@@H](N)CCCCN)C(=O)N[C@@H](CCCCN)C(=O)N[C@@H](CCCCN)C(=O)N[C@@H](CCCCN)C(=O)N[C@H](C(=O)N[C@@H](CO)C(=O)N[C@@H](CCCCN)C(=O)N[C@@H](Cc1ccccc1)C(=O)N[C@@H](CC(C)C)C(=O)N[C@@H](Cc1cnc[nH]1)C(=O)N[C@@H](CO)C(=O)N[C@@H](C)C(=O)N[C@@H](CCCCN)C(=O)N[C@@H](CCCCN)C(=O)N[C@@H](Cc1ccccc1)C(N)=O)[C@@H](C)O [KWKSFIKKKTSKFLHSAKKF],
> 100 µM,,,CSCC[C@H](NC(=O)[C@H](CCCCN)NC(=O)[C@H](CCCCN)NC(=O)[C@H](CCCCN)NC(=O)[C@H](CCCN=C(N)N)NC(=O)[C@H](CCCN=C(N)N)NC(=O)[C@H](Cc1ccc(O)cc1)NC(=O)[C@@H](N)CCCN=C(N)N)C(=O)N[C@@H](CCCCN)C(=O)N[C@@H](CCCCN)C(N)=O [RYRRKKKMKK],MIC [3]: > 100 µM
,,2.8 µM,CC[C@H](C)[C@H](NC(=O)[C@H](Cc1c[nH]c2ccccc12)NC(=O)[C@H](CCCCN)NC(=O)[C@@H]1CCCN1C(=O)[C@H](CC(C)C)NC(=O)[C@H](CCCCN)NC(=O)CNC(=O)[C@@H](NC(=O)[C@@H](NC(=O)[C@@H](N)CO)[C@@H](C)O)[C@@H](C)CC)C(=O)N[C@H](C(=O)N[C@@H](CCCCN)C(=O)N[C@H](C(=O)N[C@H](C(=O)N[C@@H](CC(N)=O)C(=O)N[C@@H](CCCCN)C(=O)N[C@@H](Cc1ccccc1)C(=O)N[C@H](C(=O)N[C@@H](CCCCN)C(=O)N[C@@H](CCCCN)C(=O)O)[C@@H](C)O)C(C)C)[C@@H](C)O)[C@@H](C)CC [STIGKLPKWIIKTVNKFTKK],
45.3 µM,,,CC(C)C[C@H](NC(=O)[C@H](Cc1ccccc1)NC(=O)[C@@H]1CCCN1C(=O)[C@H](Cc1c[nH]c2ccccc12)NC(=O)[C@H](Cc1c[nH]c2ccccc12)NC(=O)[C@H](C)NC(=O)[C@@H]1CCCN1C(=O)[C@H](Cc1ccccc1)NC(=O)[C@H](CCCN=C(N)N)NC(=O)[C@H](CCCN=C(N)N)NC(=O)[C@@H](N)C(C)C)C(=O)N[C@@H](CCCN=C(N)N)C(=O)N[C@@H](CCCN=C(N)N)C(N)=O [VRRFPAWWPFLRR],

Compound,MIC [1],MIC (Pseudomonas aeruginosa),MIC (Escherichia coli),other results
CC[C@H](C)[C@H](N)C(=O)N[C@@H](CC(C)C)C(=O)NCC(=O)N[C@@H](CCCCN)C(=O)N[C@@H](CC(C)C)C(=O)N[C@@H](Cc1c[nH]c2ccccc12)C(=O)N[C@@H](CCC(=O)O)C(=O)NCC(=O)N[C@H](C(=O)N[C@@H](CCCCN)C(=O)N[C@@H](CO)C(=O)N[C@H](C(N)=O)[C@@H](C)CC)C(C)C [ILGKLWEGVKSI],,> 25 µM,,MIC [3]: > 25 µM
